Series [1] concerns HSV-1. The series can be described thus: Anti-HSV-1 plaque reduction assay in Vero cell monolayers. Conditions: 72 h, read-out: Anti-HSV-1 IC50. The class given is cell-based. As for the experimental part: The antiviral activities of 1–17 towards HSV-1 were evaluated using plaque reduction assay for the first time.
(§1) Cytotoxic activity was evaluated using Vero cell lines by the MTT method. Anti-HSV-1 activity was determined by plaque assay using monolayer cultures of Vero cells in 24-well culture plates (Corning, New York, NY, USA). Virus suspension containing HSV-1 (30 plaque forming units (PFU)/well) was added to the cell wells and incubated at 37 °C with 5% CO2 for 2 h. The virus inoculum was then removed and overlay medium (maintenance medium containing 1% methylcellulose and various concentrations of tested compound) was added to each well. After another 72 h of incubation, the cell monolayers were fixed with 10% formalin and stained with 1% crystal violet. Plaques were counted and the percentage of inhibition was calculated according to literature. The concentration reducing plaque numbers by 50% was calculated by regression analysis of the dose–response curves generated from the plaque assay and was defined as 50% inhibitory concentration (IC50).

For series [2], the system named is Vero cell line. The series can be described thus: Cytotoxic activity against Vero cell line by MTT method. The class given is cell-based. Particulars: non-cytotoxic concentration (TC0). The method, then: as §1
Background: Formazan colour is commonly taken as a measure of viable cells.

Series [3] addresses T1, AChE (Homo sapiens, UniProt P22303).
T1 construct: purchased Sigma
The series can be described thus: biochemical. As for the experimental part: The inhibitory activities against AChE of compounds were investigated in vitro using the modified Ellman method. Briefly, the reaction mixture containing 20 μL of a different concentrations of the test compunds dissolved in DMSO solution, 450 μL of reaction buffer (0.01 M phosphate buffer, pH 7.0), 10 μL of 0.08-0.10 units/mL AChE (Sigma, one unit hydrolyzes […] of acetylcholineto choline and acetate per min at pH 7.0, 37 °C) and 10 μL of 0.01 M DTNB (Sigma, St. Louis, MO, USA) were filled in a microwell of 24-well polystyrene plate and incubated for 30 min at 37 °C. After preincubation, The reaction was started by adding 20 μL of 0.01 M ATCh (Sigma, St. Louis, MO, USA) solution in 0.01 M phosphate buffer (pH 7.0). Colorimetric measurements (412 nm) were performed on a enspire multimode microplate reader (varioskan flash, Thermo, Waltham, MA, USA). For determining the blank value, the 20 μL of test compound solution was instead of 20 μL of DMSO solution. Each concentration was analyzed in triplicate. […] IC50 values were determined graphically from the regression analysis of concentration-inhibition curves. The IC50 values are the mean ± standard deviations of three independent experiments.

Series [4] concerns barnacle Balanus amphitrite larvae. The experiment in a line: Barnacle Balanus amphitrite larval settlement bioassay (antifouling). Particulars: for EC50: Amphibalanus amphitrite, 24 h, read-out: Antifouling Against B. Amphitrite EC50; for LC50/EC50 values: antifouling activity at nontoxic concentrations, B. amphitrite larvae.
Experimental: Larval settlement bioassays were performed using sterile 24-well polystyrene plates. Tested samples were dissolved in DMSO to a concentration of 50 μg·mL^−1 for preliminary bioassay. […] About 20 competent larvae were added to each well in 1 mL of the test solution. The experiment was repeated twice with four replicateseach time. Wells containing only FSW with DMSO served as the controls. The plates were incubated at 27 °C for 24 h. The percentage of larval settlement was determined by counting the settled, live individuals under a dissecting microscope and expressing the result as a proportion of the total number of larvae in the well. Statistical calculations were performed with the SPSS software package.
Where [5] appears, read: Human alphaherpesvirus 1, plaque reduction assay in Vero cells, under non-cytotoxic concentrations (TC0).

The values that follow come from article PMC4278221, “Territrem and Butyrolactone Derivatives from a Marine-Derived Fungus Aspergillus Terreus” (Marine Drugs, 2014).

The structures appear in SMILES notation. In brackets after ≈: the same amount, converted by molar mass. Read-outs that look alike come from different tables or passages of the source.

As a reminder, the IC50 is the concentration that gives 50% inhibition. As a reminder, the EC50 is the concentration giving half of the maximal effect.

T1 sequence (P22303 32-614): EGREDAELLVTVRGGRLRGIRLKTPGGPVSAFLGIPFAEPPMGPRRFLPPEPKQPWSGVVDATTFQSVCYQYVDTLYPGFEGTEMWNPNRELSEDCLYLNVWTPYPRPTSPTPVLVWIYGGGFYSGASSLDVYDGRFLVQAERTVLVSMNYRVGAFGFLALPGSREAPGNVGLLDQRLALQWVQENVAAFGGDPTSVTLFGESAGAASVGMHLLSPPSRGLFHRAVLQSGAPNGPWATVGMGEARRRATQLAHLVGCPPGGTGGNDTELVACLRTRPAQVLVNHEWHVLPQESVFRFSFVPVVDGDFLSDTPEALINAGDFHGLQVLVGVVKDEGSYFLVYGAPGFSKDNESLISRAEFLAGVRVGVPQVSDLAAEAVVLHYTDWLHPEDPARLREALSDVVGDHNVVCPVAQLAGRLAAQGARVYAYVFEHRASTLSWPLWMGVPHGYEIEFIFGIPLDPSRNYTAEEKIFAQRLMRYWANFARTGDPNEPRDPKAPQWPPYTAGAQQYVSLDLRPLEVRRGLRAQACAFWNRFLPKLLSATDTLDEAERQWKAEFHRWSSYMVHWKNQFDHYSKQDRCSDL

With `Nc1nc2c(ncn2COCCO)c(=O)[nH]1` [Acyclovir, reference compound], the IC50 in series [1] (setting [5]) is 34.5 ± 0.7 µg/mL (≈ 153 µM). Also, the “Cytotoxicity Against Vero TC0” value in series [2] is above 1000 µg/mL.

In series [3], `COc1cc(-c2cc3c(c(=O)o2)C[C@]2(O)[C@@]4(C)C(=O)C=CC(C)(C)[C@]4(O)CC[C@@]2(C)O3)cc(O)c1OC` [Compound 1, territrem D] had an IC50 of 0.0042 ± 0.0006 µM. Further, the “Cytotoxicity Against Vero TC0” value in series [2] amounted to 25 µg/mL. In series [4], the EC50 amounted to 12.9 ± 0.5 µg/mL (≈ 25.2 µM) and the LC50/EC50 values is above 100 µg/mL.

On to `COc1cc(-c2cc3c(c(=O)o2)C[C@]2(O)[C@@]4(C)C(=O)C=CC(C)(C)[C@]4(O)CC[C@@]2(C)O3)ccc1O` [Compound 2, territrem E], for which the IC50 in series [3] (modified Ellman method, pH 7.0, 37 °C, mean ± SD of three independent experiments, read-out: Anti-AChE IC50) was found to be 0.0045 ± 0.0006 µM. The “Cytotoxicity Against Vero TC0” value in series [2] was 200 µg/mL.

On to `COc1ccc(-c2cc3c(c(=O)o2)C[C@H]2[C@@](C)(CC[C@@]4(O)C(C)(C)OC(=O)CC[C@]24C)O3)cc1` [Compound 3, 11a-dehydroxyisoterreulactone A], for which, in series [1] (setting [5]), the IC50 amounted to 16.4 ± 0.6 µg/mL (≈ 35 µM). The “Cytotoxicity Against Vero TC0” value in series [2] came out at 200 µg/mL.

Compound `COc1cc(-c2cc3c(c(=O)o2)C[C@]2(O)[C@@]4(C)C(=O)C=CC(C)(C)[C@]4(O)CC[C@@]2(C)O3)cc(OC)c1OC` [Compound 4, territrem B] had an IC50 in series [3] of 0.0042 ± 0.0006 µM. The “Cytotoxicity Against Vero TC0” value in series [2] turned out to be 25 µg/mL.

As for `COc1cc(-c2cc3c(c(=O)o2)C[C@]2(O)[C@@]4(C)C(=O)C=CC(C)(C)[C@]4(O)CC[C@@]2(C)O3)cc(OC)c1O` [Compound 5, territrem C], half-maximal inhibition in series [3] (IC50) required 0.0201 ± 0.0033 µM. Also, the “Cytotoxicity Against Vero TC0” value in series [2] is above 25 µg/mL.

For `COc1ccc(-c2cc3c(c(=O)o2)C[C@]2(O)[C@@]4(C)C(=O)C=CC(C)(C)[C@]4(O)CC[C@@]2(C)O3)cc1OC` [Compound 6, arisugacin A], the IC50 in series [3] worked out at 0.0119 ± 0.0021 µM; in series [1] (Human alphaherpesvirus 1, Vero), 6.34 ± 0.4 µg/mL (≈ 12.8 µM). In addition, the “Cytotoxicity Against Vero TC0” value in series [2] was 100 µg/mL.

`COc1ccc(-c2cc3c(c(=O)o2)C[C@]2(O)[C@@]4(C)[C@@H](O)C[C@@H](OC(C)=O)C(C)(C)[C@]4(O)CC[C@@]2(C)O3)cc1` [Compound 7, arisugacin H]: in series [3] (modified Ellman method, value printed in μM in text, read-out: Anti-AChE IC50), the IC50 worked out at 5.7 ± 0.8 µM. Besides, the “Cytotoxicity Against Vero TC0” value in series [2] is 100 µg/mL.

Compound `COc1ccc(-c2cc3c(c(=O)o2)C[C@]2(O)[C@@]4(C)CCC(=O)C(C)(C)[C@]4(O)CC[C@@]2(C)O3)cc1` [Compound 8, terreulactone C] gave an IC50 in series [3] of 0.05 ± 0.0015 µM. Also, in series [2], the “Cytotoxicity Against Vero TC0” value is above 25 µg/mL.

`COC1(Cc2ccc(O)cc2)OC(=O)C(O)=C1c1ccc(O)cc1` (stereo not shown) [Compound 10, isobutyrolactone II]: the IC50 in series [1] (setting [5]) was 21.8 ± 1.8 µg/mL (≈ 66.4 µM). Further, in series [2], the “Cytotoxicity Against Vero TC0” value turned out to be 200 µg/mL.

On to `COC(=O)[C@]1(Cc2ccc3c(c2)C[C@H](O)C(C)(C)O3)OC(=O)C(O)=C1c1ccc(O)cc1` [Compound 11, butyrolactone V], for which, in series [4], the concentration giving a half-maximal response (EC50) is 22.1 ± 0.8 µg/mL (≈ 50.2 µM) and the LC50/EC50 values was above 100 µg/mL.

`COC(=O)[C@]1(Cc2ccc3c(c2)CCC(C)(C)O3)OC(=O)C(O)=C1c1ccc(O)cc1` [Compound 12, aspernolide A]: the IC50 in series [1] (setting [5]) turned out to be 28.9 ± 1.8 µg/mL (≈ 68.1 µM). Further, the “Cytotoxicity Against Vero TC0” value in series [2] was determined as 100 µg/mL. Moreover, in series [4], the EC50 amounted to 7.4 ± 0.6 µg/mL (≈ 17.4 µM) and the LC50/EC50 values is above 100 µg/mL.

`COC(=O)[C@]1(Cc2ccc(O)c(CCC(C)(C)O)c2)OC(=O)C(O)=C1c1ccc(O)cc1` [Compound 15, aspernolide B]: in series [4], the EC50 was 16.1 ± 0.6 µg/mL (≈ 36.4 µM) and the LC50/EC50 values was above 100 µg/mL.
